The structures appear in SMILES notation. Calls of active or inactive are those of the source.

The target of test [1] is T1, Nucleotide-binding oligomerization domain-containing protein 1 (Homo sapiens, UniProt Q9Y239).
T1 sequence (Q9Y239 whole entry): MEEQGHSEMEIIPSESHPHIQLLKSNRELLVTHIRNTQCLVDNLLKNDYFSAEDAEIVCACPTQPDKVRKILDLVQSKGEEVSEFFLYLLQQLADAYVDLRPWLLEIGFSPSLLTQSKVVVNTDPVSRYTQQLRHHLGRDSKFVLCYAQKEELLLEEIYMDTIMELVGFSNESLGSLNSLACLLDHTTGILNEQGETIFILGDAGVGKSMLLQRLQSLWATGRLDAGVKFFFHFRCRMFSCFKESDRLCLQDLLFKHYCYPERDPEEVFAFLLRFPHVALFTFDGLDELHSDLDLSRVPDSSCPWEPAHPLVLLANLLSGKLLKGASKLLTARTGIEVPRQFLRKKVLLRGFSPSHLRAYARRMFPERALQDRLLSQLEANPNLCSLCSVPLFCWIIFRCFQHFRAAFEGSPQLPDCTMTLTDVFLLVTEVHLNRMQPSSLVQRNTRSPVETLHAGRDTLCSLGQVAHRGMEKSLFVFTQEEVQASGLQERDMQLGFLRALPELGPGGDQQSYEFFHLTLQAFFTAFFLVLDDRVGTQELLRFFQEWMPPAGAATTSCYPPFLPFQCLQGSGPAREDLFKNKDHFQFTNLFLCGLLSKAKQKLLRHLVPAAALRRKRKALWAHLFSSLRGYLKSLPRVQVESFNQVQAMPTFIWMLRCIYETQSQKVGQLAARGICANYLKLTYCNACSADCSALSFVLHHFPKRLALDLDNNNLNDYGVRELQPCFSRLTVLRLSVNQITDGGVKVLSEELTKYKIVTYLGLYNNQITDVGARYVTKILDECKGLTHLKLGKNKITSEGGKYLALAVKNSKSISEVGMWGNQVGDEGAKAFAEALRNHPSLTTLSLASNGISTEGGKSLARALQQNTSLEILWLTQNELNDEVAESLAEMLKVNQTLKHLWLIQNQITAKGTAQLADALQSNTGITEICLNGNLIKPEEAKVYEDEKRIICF
Briefly: NOD1 signaling inhibitors, SAR follow-up, revised (AID 2333). Format: functional.

Test [2] concerns HEK293. Briefly: cells. The settings on record: Homo sapiens.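 Also: cells exposed to compound for 14 hours overnight before viability readout.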
The target of test [3] is Tumor necrosis factor (Homo sapiens, UniProt P01375). Briefly: TNFa-triggered NF-kB activation inhibitors, SAR follow-up, cell-based, revised (AID 2337). Format: functional.
The target in test [4] is Nucleotide-binding oligomerization domain-containing protein 2 (Homo sapiens, UniProt Q9HC29). Briefly: PubChem AID 2334. It is filed as functional.
Test [5] can be described thus: HepG2 cell cytotoxicity, dose response, cytotoxicity control for non-replicating M. tuberculosis project (AID 489018). The settings on record: Mycobacterium tuberculosis. Format: functional.
The target of test [6] is T2, RNA-binding protein pos-1 (Caenorhabditis elegans, UniProt G5EF15).
T2 sequence (G5EF15 whole entry): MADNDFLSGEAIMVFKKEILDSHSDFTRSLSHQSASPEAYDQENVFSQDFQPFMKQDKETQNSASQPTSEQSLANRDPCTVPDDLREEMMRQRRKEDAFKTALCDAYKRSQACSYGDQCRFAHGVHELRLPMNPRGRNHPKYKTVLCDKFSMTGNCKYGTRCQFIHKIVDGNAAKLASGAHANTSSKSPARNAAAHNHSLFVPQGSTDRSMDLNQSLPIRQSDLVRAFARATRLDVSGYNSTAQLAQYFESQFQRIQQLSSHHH
Briefly: inhibitors of POS-1/mex-3 RNA binding, dose response, biochemical, fluorescence polarization (AID 1964).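 Also: purified POS-1 fused to maltose binding protein made in E. coli; potency of compounds blocking POS-1 binding to fluorescent RNA.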

Test [7] is described as follows: Vero E6 cell cytotoxicity, dose response, cytotoxicity control for non-replicating M. tuberculosis project, secondary assay (AID 492998). As to conditions: Vero C1008. It is filed as functional, VeroE6.
A short description of test [8]: THP-1 cell cytotoxicity, dose response, cytotoxicity control for non-replicating M. tuberculosis project (AID 489025). Format: functional.
Test [9] deals with T3, Zinc finger protein mex-5 (Caenorhabditis elegans, UniProt Q9XUB2).
T3 sequence (Q9XUB2 whole entry): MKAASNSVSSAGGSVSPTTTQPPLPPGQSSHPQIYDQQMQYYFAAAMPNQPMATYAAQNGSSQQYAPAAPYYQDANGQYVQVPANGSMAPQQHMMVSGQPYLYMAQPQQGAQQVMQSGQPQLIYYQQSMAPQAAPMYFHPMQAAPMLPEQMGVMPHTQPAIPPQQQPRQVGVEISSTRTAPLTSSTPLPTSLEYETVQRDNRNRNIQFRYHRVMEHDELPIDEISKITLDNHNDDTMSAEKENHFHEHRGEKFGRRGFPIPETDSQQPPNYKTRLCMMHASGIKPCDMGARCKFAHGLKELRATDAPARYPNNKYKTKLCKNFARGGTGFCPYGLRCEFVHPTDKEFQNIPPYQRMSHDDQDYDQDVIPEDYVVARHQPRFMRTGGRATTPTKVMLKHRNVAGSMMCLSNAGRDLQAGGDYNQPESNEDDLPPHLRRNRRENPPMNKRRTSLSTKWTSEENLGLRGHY
Description: MEX-5/TCR-2 RNA interaction inhibitors, dose response, biochemical, C. elegans, fluorescence polarization (AID 1960).

Test [10] can be described thus: cells. Format: functional.
Test [11] has as its target T4, X-box-binding protein 1 (Homo sapiens, UniProt P17861).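 Also: confirmatory dose-response counter-screen serving a CHOP assay.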
T4 sequence (P17861 whole entry): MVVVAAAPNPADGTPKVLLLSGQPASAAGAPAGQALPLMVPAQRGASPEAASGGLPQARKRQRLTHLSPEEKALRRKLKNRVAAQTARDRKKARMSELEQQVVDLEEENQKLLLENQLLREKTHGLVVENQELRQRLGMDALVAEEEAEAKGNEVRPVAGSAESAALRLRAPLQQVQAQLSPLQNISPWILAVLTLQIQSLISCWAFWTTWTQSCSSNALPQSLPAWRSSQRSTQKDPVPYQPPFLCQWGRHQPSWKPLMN
Format: functional, Cricetulus griseus.

The target of test [12] is Genome polyprotein (dengue virus type 2, UniProt P29990). Description: Dengue-2 NS5 methyltransferase inhibitors, primary screen, biochemical, confirmation dose response (AID 588689). It is filed as functional.
The target of test [13] is Beta-galactosidase (Escherichia coli, UniProt Q8VNN2). Description: beta-galactosidase enzyme inhibitors and activators, dose response, artefact control for CCR6 antagonist project, biochemical, E. coli enzyme, set 3 (AID 504712). Format: functional.
Test [14] concerns the target T5, Carboxy-terminal domain RNA polymerase II polypeptide A small phosphatase 1 (Homo sapiens, UniProt Q9GZU7).
T5 sequence (Q9GZU7 whole entry): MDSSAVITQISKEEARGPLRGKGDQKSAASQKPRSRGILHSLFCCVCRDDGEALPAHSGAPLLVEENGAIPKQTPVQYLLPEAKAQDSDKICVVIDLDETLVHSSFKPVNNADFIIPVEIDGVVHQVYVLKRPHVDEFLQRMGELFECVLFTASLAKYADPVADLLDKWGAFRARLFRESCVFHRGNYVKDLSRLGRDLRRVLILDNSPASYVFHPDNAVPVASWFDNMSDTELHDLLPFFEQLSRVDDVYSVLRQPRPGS
Briefly: inhibitors of CTDSP1, concentration-response testing, biochemical assay, absorbance-based, actives from ultra-high-throughput screening (AID 540297). Format: functional.

Test [15] deals with T6, Bcl-2-like protein 10 (Homo sapiens, UniProt Q9HD36).
T6 sequence (Q9HD36 whole entry): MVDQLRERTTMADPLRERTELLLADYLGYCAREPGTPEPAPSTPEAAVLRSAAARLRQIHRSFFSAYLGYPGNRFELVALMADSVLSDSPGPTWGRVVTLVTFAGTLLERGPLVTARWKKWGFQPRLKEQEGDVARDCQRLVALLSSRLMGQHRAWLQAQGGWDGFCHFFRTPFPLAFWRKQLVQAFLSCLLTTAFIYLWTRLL
Briefly: displacers of TR3 peptide from Bcl-B, primary screen, selectivity assay for Bfl-1 inhibitor project, biochemical, fluorescence polarization, FITC-TR3 peptide (AID 748).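 Also: fluorescence polarization from a fluorescein-labelled TR3 peptide binding purified Bcl-B.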

The target of test [16] is Large T antigen (Simian virus 40, UniProt P03070). It is filed as functional, Betapolyomavirus macacae.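 Also: Confirmatory-stage PubChem screen for compounds that inhibit SV40 T antigen.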
A short description of test [17]: A cytotoxicity screen of small molecule inhibitors of the PhoP region in Salmonella typhi identified in the primary screen. [Related pubchem assays: 1850, 1864, 1985 ]. It is filed as functional.
The nature of test [18]: HepG2 cell cytotoxicity, dose response, cytotoxicity control for Shn3 inhibitor project, CellTiter-Glo, cherry-picked (AID 624134). It is filed as functional, cell-based.
A short description of test [19]: Shn3 3'UTR reporter inhibitors, dose response, cell-based, Clone20 osteoblasts, firefly luciferase, cherry-picked (AID 624132).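 Also: firefly luciferase luminescence from reporter carrying the Shn3 3'UTR in osteoblasts.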 It is filed as functional.
The nature of test [20]: inhibitors of intracellular T. cruzi replication, confirmation, NIH3T3 host cells, beta-gal luminescence (AID 2044).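 Also: intracellular parasites grown in NIH/3T3 mouse fibroblasts as host cells; luminescent beta-galactosidase reporter signal from transgenic T. cruzi replicating inside host cells; inhibitors lower the luminescence signal.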 It is filed as functional, cell-based.
Test [21] is described as follows: control 3'UTR Renilla luciferase suppression, dose response, counter-screen for Shn3 inhibitor project, cell-based, Clone20-Shn3RL, cherry-picked (AID 624133). It is filed as functional.
A short description of test [22]: cytotoxicity toward NIH3T3 fibroblasts, dose response, counter-screen, cell-based, ATP luminescence, mouse fibroblasts (AID 2010).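 Also: cells exposed to compound for about 90 hours before reading.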 Format: functional.
The target in test [23] is Peroxisome proliferator-activated receptor gamma/Nuclear receptor coactivator 1 (Homo sapiens, UniProt P37231). It is filed as functional.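 Also: agonist potency as compounds enhance coactivator SRC-1 recruitment to PPARgamma.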
For test [24], the target named is Peroxisome proliferator-activated receptor gamma/Nuclear receptor coactivator 3 (Homo sapiens, UniProt P37231). It is filed as functional.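 Also: agonist potency for raising coactivator recruitment to the receptor.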
Test [25] has as its target Peroxisome proliferator-activated receptor gamma/Nuclear receptor coactivator 2 (Homo sapiens, UniProt P37231). It is filed as functional.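 Also: agonist potency for raising coactivator recruitment to the receptor.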
Test [26] deals with Peroxisome proliferator-activated receptor gamma/Nuclear receptor corepressor 2 (Homo sapiens, UniProt P37231+Q9Y618). It is filed as functional.
Test [27] concerns the target Photoreceptor-specific nuclear receptor (Homo sapiens, UniProt Q9Y5X4). It is filed as functional.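 Also: potency for compounds that break the NR2E3 corepressor complex and count as activators.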
Test [28] is described as follows: cells. It is filed as functional, cell-based.
Test [29] in a line: cells. It is filed as functional, cell-based. This is another data set of the same source.

Sequence of Nucleotide-binding oligomerization domain-containing protein 2 (Q9HC29 whole entry, the tested form may be a part): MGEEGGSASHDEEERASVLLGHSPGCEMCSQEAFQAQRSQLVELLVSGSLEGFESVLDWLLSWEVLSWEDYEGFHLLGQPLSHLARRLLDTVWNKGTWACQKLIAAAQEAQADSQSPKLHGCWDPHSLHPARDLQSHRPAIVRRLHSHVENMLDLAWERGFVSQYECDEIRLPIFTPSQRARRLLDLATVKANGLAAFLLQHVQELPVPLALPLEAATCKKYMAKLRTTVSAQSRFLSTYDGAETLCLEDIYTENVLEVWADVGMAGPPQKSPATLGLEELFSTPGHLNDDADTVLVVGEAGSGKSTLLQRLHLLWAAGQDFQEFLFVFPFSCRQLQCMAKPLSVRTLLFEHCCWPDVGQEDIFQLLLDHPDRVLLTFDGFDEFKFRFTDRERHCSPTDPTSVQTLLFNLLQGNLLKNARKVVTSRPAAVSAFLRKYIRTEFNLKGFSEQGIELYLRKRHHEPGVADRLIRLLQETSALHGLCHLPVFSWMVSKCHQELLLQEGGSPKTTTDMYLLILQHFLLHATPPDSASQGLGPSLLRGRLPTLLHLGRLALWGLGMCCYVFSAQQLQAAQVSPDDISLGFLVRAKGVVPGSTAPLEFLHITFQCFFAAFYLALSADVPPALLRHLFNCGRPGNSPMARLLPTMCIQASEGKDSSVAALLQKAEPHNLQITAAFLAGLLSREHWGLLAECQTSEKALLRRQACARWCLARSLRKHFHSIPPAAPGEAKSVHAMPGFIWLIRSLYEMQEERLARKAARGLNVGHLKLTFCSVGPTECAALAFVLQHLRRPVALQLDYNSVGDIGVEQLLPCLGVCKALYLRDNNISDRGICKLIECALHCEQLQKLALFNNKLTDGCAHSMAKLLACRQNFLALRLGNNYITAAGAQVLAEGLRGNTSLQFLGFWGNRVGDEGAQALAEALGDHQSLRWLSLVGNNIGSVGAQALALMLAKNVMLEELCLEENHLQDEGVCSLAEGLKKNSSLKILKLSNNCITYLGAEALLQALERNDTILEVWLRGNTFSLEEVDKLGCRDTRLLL
Sequence of Tumor necrosis factor (P01375 whole entry, the tested form may be a part): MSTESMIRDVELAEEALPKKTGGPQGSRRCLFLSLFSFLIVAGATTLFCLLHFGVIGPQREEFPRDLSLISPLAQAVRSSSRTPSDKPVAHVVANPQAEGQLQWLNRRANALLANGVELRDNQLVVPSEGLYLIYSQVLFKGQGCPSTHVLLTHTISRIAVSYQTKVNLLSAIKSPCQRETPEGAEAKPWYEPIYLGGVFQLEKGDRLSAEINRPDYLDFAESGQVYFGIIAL
Sequence of Photoreceptor-specific nuclear receptor (Q9Y5X4 whole entry): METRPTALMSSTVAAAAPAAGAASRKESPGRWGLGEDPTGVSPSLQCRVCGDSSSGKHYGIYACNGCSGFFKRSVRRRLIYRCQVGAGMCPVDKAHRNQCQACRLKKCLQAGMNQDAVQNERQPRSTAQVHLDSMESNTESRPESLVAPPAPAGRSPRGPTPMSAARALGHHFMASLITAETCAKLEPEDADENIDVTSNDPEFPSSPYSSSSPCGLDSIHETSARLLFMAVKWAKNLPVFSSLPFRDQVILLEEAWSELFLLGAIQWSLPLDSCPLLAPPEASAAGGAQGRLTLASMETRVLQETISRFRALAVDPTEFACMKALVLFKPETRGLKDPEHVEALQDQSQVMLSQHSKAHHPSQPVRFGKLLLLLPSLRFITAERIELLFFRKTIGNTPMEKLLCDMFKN
Sequence of Beta-galactosidase (Q8VNN2 whole entry, the tested form may be a part): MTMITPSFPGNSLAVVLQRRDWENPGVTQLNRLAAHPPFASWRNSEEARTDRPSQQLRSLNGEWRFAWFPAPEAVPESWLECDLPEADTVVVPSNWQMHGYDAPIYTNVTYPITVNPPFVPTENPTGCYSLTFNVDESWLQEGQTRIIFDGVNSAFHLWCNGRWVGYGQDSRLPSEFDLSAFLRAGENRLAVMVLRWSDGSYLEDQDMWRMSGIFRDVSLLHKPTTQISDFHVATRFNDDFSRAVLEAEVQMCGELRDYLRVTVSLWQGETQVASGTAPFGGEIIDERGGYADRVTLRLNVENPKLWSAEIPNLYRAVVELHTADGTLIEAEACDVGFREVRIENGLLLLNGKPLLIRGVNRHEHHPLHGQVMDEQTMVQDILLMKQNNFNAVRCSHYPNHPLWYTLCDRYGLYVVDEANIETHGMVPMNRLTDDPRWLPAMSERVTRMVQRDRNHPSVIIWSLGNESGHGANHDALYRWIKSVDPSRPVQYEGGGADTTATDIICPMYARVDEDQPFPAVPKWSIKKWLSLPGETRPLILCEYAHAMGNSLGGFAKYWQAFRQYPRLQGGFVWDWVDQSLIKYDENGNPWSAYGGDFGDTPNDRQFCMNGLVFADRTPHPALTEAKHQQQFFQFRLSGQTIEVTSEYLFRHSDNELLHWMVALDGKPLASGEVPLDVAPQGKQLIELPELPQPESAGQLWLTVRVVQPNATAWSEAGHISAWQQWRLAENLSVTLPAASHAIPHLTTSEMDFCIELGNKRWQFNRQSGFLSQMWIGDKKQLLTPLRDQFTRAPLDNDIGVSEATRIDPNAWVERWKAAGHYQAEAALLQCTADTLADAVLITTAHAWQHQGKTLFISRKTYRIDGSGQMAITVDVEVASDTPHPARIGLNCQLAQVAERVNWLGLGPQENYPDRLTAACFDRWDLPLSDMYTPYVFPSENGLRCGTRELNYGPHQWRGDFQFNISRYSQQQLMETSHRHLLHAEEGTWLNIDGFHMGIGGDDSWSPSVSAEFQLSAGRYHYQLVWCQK
Sequence of Large T antigen (P03070 whole entry): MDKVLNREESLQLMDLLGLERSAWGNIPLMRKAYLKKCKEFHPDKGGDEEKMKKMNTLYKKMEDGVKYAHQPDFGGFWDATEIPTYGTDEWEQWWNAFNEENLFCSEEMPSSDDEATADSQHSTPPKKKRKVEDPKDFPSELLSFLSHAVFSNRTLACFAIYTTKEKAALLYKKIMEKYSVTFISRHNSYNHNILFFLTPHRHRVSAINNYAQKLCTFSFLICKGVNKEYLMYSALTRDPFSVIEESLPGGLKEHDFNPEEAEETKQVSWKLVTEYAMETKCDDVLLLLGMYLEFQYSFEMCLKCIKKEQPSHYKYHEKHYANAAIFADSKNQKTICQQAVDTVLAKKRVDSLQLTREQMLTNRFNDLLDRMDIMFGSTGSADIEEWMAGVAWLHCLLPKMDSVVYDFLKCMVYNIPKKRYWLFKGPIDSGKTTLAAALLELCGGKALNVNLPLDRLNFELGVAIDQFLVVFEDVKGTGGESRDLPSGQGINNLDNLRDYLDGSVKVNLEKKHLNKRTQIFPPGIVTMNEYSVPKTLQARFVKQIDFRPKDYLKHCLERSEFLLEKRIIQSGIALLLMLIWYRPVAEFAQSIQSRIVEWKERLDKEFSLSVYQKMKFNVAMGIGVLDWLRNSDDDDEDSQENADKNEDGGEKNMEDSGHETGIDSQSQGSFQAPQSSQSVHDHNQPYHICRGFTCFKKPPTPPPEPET
Sequence of Genome polyprotein (P29990 2492-3391 limits assumed): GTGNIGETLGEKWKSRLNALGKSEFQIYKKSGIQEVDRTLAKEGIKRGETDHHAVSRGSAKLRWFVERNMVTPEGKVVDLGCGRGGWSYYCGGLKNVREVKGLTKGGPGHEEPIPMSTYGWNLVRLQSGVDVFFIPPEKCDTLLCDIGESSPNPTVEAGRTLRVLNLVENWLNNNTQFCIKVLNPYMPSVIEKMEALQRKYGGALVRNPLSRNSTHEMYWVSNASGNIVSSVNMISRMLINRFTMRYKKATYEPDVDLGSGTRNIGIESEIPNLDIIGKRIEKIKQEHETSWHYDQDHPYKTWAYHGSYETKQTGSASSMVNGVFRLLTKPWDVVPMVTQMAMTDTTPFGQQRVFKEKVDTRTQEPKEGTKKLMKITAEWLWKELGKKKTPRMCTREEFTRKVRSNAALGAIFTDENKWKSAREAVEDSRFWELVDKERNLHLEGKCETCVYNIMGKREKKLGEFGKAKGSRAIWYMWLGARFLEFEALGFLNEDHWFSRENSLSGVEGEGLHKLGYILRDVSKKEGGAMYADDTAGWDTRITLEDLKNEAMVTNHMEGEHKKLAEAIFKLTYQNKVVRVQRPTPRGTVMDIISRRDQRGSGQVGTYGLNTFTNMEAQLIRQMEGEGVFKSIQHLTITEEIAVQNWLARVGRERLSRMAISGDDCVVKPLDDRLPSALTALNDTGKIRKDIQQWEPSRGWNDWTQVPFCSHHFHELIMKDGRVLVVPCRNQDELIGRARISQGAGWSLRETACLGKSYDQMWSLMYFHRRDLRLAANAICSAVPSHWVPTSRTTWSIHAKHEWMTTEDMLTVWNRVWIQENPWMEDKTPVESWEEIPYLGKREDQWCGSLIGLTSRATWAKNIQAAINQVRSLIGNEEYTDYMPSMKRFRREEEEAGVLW

On to `CC1(C)Cc2c(sc(NC(=O)C(=O)N3CCCCC3)c2C(=O)O)CO1`, for which the IC50 in test [1], in test [2], in test [3] and in [4] was > 20 µM (inactive) throughout.
In the case of `Cc1cnc(C(=O)NNC(=O)c2ccc(Br)cc2)cn1`, the results for the CC50 in [5], in [7] and in test [8] were > 20 µM (active), 14.6 µM (active) and 26.3 µM (active), respectively. For the same molecule, the figures for the concentration giving a half-maximal response (EC50) in test [6] and in [9] were > 300 µM (not active) and 9.68 µM (active), respectively. The half-inhibitory concentration (IC50) in test [10] is 23.2 µM (active).
As to `C/C(=N\Nc1nc2ccccc2[nH]1)c1cc2ccccc2o1`, the 50% cytotoxic concentration (CC50) in test [7] is > 20 µM (active); in [8], > 40 µM (active). Further, the half-inhibitory concentration (IC50) in test [10] was 1.28 µM (active).
Consider `CC1=CC(C)(C)N(C(=O)c2ccc(F)cc2)c2cc3c(cc21)OCO3`, for which, in test [11], the “Absolute IC50 (XBP1)” value was 10 µM.
Consider `CC1(C)Cc2c(sc(NC(=O)c3ccccc3)c2C(=O)O)CO1`, for which the IC50 in test [1], in test [2], in test [3] and in [4] was > 20 µM (inactive) throughout.
Take `O=C(CN1C(=O)/C(=C2/SC(=S)N(CCS(=O)(=O)O)C2=O)c2ccccc21)Nc1cccc(C(F)(F)F)c1`: the figures for the IC50 in test [12], in [13] and in [14] were 35.3 µM (active), > 66.6 µM (inactive) and 2.41 µM (active), respectively.
As to `O=c1c2cc(N3CCOCC3)ccc2[nH]c(=S)n1CCCN1CCCCCC1`, in test [15], the IC50 is 88 µM (inactive).
Take `COc1cc(/C=N/NC(=O)NC2CCCCC2)ccc1O`: in test [16], the IC50 was 7.16 µM (active).
In the case of `O=[N+]([O-])c1ccc(-c2nn(-c3ccccc3)cc2/C=N/n2c(S)nnc2-c2cccs2)cc1`, the “Absolute IC50 (XBP1)” value in test [11] came out at 10 µM.
With `CC(C)(C)c1ccc(NC(=O)COc2ccc(-n3ccnc3)cc2)cc1`, in test [5], the CC50 is > 20 µM (active). The EC50 in test [17] was > 50 µM (active); in test [20], 1.27 µM (active); in test [22] it was > 60 µM (not active). Further, the concentration at half-maximal activity (AC50) is 43.1 µM (active) in test [18], 5.27 µM (active) in test [19] and 10 µM (active) in test [21]. Besides, in test [10], the IC50 was 26.1 µM (active).
In the case of `C=CCn1c(SCc2cc(=O)n3ccsc3n2)nnc1C1CCCCC1`, in test [15], the IC50 is 61.5 µM (inactive).
As to `CC(=O)Nc1nc2ccccc2n1S(=O)(=O)c1ccc(Cl)cc1`, the 50% inhibitory concentration (IC50) was 4.56 µM (active) in test [1], > 20 µM (inactive) in test [2], > 20 µM (inactive) in test [3] and > 20 µM (inactive) in [4].
On to `C/C(=N/NC(=S)Nc1ccccc1)c1ccc2c(c1)OCO2`, for which the IC50 in test [13] was > 66.6 µM (inactive).
With `CCc1cc2cc(C(=O)Nc3ccc(C)cc3)sc2s1`, the figures for the 50% effective concentration (EC50) in test [23], in test [24] and in [25] were 50.4 µM (not active), 50.8 µM (not active) and 28.1 µM (not active), respectively. The IC50 in test [26] was 2.25 µM (active); in [27], > 39.8 µM (not active).
On to `COc1cccc(CNC(=O)CCCn2c(=S)[nH]c3cc4c(cc3c2=O)OCO4)c1`, for which the values for the 50% inhibitory concentration (IC50) in test [26] and in test [27] were 4.26 µM (active) and > 39.8 µM (not active), respectively. Further, the EC50 in test [28] is > 350 µM (not active); in test [29], 54.4 µM (active).
`Nc1ccc(OCC(O)C[n+]2ccc(CCS(=O)(=O)[O-])cc2)cc1` (stereo not drawn): the IC50 in [16] was 17.9 µM (active).

The values above are taken from ChEMBL document CHEMBL1201862, “PubChem BioAssay data set” (2004).
